# Measurements: PMC5622171 (Nature Communications, 2017)
# Key:
# Assay in all cases: KINOMEscan kinase profiling
# Type in all cases: binding
# ACVR1B = target: T1, ACVR1B (Homo sapiens, UniProt P36896); conditions: read-out: %Inhibition by 10 μM SPA70
# T1 construct: purchased DiscoverX (Ambit Biosciences) KINOMEscan
# Experimental: (§1) Kinase inhibition profiling assays. The kinase inhibition profiling assay (KINOMEscan) was performed by Ambit Biosciences, now part of DiscoveryX (Fremont, CA) in accordance with the […]
# (§2) published protocol20, 21. […] If the inhibition of a kinase was greater […]
# (§3) dilutions) starting from 30 µM.
# ACVR2A = target: T2, ACVR2A (Homo sapiens, UniProt P27037); conditions: read-out: %Inhibition by 10 μM SPA70
# T2 construct: purchased DiscoverX (Ambit Biosciences) KINOMEscan
# Experimental: as §1, §2, §3
# AURKC = target: T3, AURKC (Homo sapiens, UniProt Q9UQB9); conditions: read-out: %Inhibition by 10 μM SPA70
# T3 construct: purchased DiscoverX (Ambit Biosciences) KINOMEscan
# Experimental: as §1, §2, §3
# CDC2L1 = target: T4, CDC2L1 (Homo sapiens, UniProt P21127); conditions: read-out: %Inhibition by 10 μM SPA70
# T4 construct: purchased DiscoverX (Ambit Biosciences) KINOMEscan
# Experimental: as §1, §2, §3
# CLK1 = target: T5, CLK1 (Homo sapiens, UniProt P49759); conditions: read-out: %Inhibition by 10 μM SPA70
# T5 construct: purchased DiscoverX (Ambit Biosciences) KINOMEscan
# Experimental: as §1, §2, §3
# EPHA5 = target: T6, EPHA5 (Homo sapiens, UniProt P54756)
# T6 construct: purchased DiscoverX (Ambit Biosciences) KINOMEscan
# Experimental: as §1, §2, §3
# EPHB3 = target: T7, EPHB3 (Homo sapiens, UniProt P54753); conditions: read-out: %Inhibition by 10 μM SPA70
# T7 construct: purchased DiscoverX (Ambit Biosciences) KINOMEscan
# Experimental: as §1, §2, §3
# FAK = target: T8, FAK (Homo sapiens, UniProt Q05397); conditions: read-out: %Inhibition by 10 μM SPA70
# T8 construct: purchased DiscoverX (Ambit Biosciences) KINOMEscan
# Experimental: as §1, §2, §3
# IKK-beta = target: T9, IKK-beta (Homo sapiens, UniProt O14920); conditions: read-out: %Inhibition by 10 μM SPA70
# T9 construct: purchased DiscoverX (Ambit Biosciences) KINOMEscan
# Experimental: as §1, §2, §3
# IKK-epsilon = target: T10, IKK-epsilon (Homo sapiens, UniProt Q14164); conditions: read-out: %Inhibition by 10 μM SPA70
# T10 construct: purchased DiscoverX (Ambit Biosciences) KINOMEscan
# Experimental: as §1, §2, §3
# INSRR = target: T11, INSRR (Homo sapiens, UniProt P14616); conditions: read-out: %Inhibition by 10 μM SPA70
# T11 construct: purchased DiscoverX (Ambit Biosciences) KINOMEscan
# Experimental: as §1, §2, §3
# ITK = target: T12, ITK (Homo sapiens, UniProt Q08881)
# T12 construct: purchased DiscoverX (Ambit Biosciences) KINOMEscan
# Experimental: as §1, §2, §3
# LKB1 = target: T13, LKB1 (Homo sapiens, UniProt Q15831); conditions: read-out: %Inhibition by 10 μM SPA70
# T13 construct: purchased DiscoverX (Ambit Biosciences) KINOMEscan
# Experimental: as §1, §2, §3
# MEK3 = target: T14, MEK3 (Homo sapiens, UniProt P46734); conditions: read-out: %Inhibition by 10 μM SPA70
# T14 construct: purchased DiscoverX (Ambit Biosciences) KINOMEscan
# Experimental: as §1, §2, §3
# MEK6 = target: T15, MEK6 (Homo sapiens, UniProt P52564); conditions: read-out: %Inhibition by 10 μM SPA70
# T15 construct: purchased DiscoverX (Ambit Biosciences) KINOMEscan
# Experimental: as §1, §2, §3
# MERTK = target: T16, MERTK (Homo sapiens, UniProt Q12866); conditions: read-out: %Inhibition by 10 μM SPA70
# T16 construct: purchased DiscoverX (Ambit Biosciences) KINOMEscan
# Experimental: as §1, §2, §3
# MUSK = target: T17, MUSK (Homo sapiens, UniProt O15146); conditions: read-out: %Inhibition by 10 μM SPA70
# T17 construct: purchased DiscoverX (Ambit Biosciences) KINOMEscan
# Experimental: as §1, §2, §3
# NEK4 = target: T18, NEK4 (Homo sapiens, UniProt P51957); conditions: read-out: %Inhibition by 10 μM SPA70
# T18 construct: purchased DiscoverX (Ambit Biosciences) KINOMEscan
# Experimental: as §1, §2, §3
# NIM1 = target: T19, NIM1 (Homo sapiens, UniProt Q8IY84); conditions: read-out: %Inhibition by 10 μM SPA70
# T19 construct: purchased DiscoverX (Ambit Biosciences) KINOMEscan
# Experimental: as §1, §2, §3
# OSR1 = target: T20, OSR1 (Homo sapiens, UniProt O95747); conditions: read-out: %Inhibition by 10 μM SPA70
# T20 construct: purchased DiscoverX (Ambit Biosciences) KINOMEscan
# Experimental: as §1, §2, §3
# PCTK2 = target: T21, PCTK2 (Homo sapiens, UniProt Q00537); conditions: read-out: %Inhibition by 10 μM SPA70
# T21 construct: purchased DiscoverX (Ambit Biosciences) KINOMEscan
# Experimental: as §1, §2, §3
# PHKG2 = target: T22, PHKG2 (Homo sapiens, UniProt P15735); conditions: read-out: %Inhibition by 10 μM SPA70
# T22 construct: purchased DiscoverX (Ambit Biosciences) KINOMEscan
# Experimental: as §1, §2, §3
# PKN1 = target: T23, PKN1 (Homo sapiens, UniProt Q16512); conditions: read-out: %Inhibition by 10 μM SPA70
# T23 construct: purchased DiscoverX (Ambit Biosciences) KINOMEscan
# Experimental: as §1, §2, §3
# PLK1 = target: T24, PLK1 (Homo sapiens, UniProt P53350); conditions: read-out: %Inhibition by 10 μM SPA70
# T24 construct: purchased DiscoverX (Ambit Biosciences) KINOMEscan
# Experimental: as §1, §2, §3
# PRKD2 = target: T25, PRKD2 (Homo sapiens, UniProt Q9BZL6); conditions: read-out: %Inhibition by 10 μM SPA70
# T25 construct: purchased DiscoverX (Ambit Biosciences) KINOMEscan
# Experimental: as §1, §2, §3
# PRP4 = target: T26, PRP4 (Homo sapiens, UniProt Q13523); conditions: read-out: %Inhibition by 10 μM SPA70
# T26 construct: purchased DiscoverX (Ambit Biosciences) KINOMEscan
# Experimental: as §1, §2, §3
# ROS1 = target: T27, ROS1 (Homo sapiens, UniProt P08922); conditions: read-out: %Inhibition by 10 μM SPA70
# T27 construct: purchased DiscoverX (Ambit Biosciences) KINOMEscan
# Experimental: as §1, §2, §3
# [1] = target: T28, RPS6KA5(Kin.Dom.2-C-terminal) (Homo sapiens, UniProt O75582); conditions: read-out: %Inhibition by 10 μM SPA70
# T28 construct: RPS6KA5(Kin.Dom.2-C-terminal); purchased DiscoverX (Ambit Biosciences) KINOMEscan
# Experimental: as §1, §2, §3
# [2] = target: T29, RSK1(Kin.Dom.2-C-terminal) (Homo sapiens, UniProt Q15418); conditions: read-out: %Inhibition by 10 μM SPA70
# T29 construct: RSK1(Kin.Dom.2-C-terminal); purchased DiscoverX (Ambit Biosciences) KINOMEscan
# Experimental: as §1, §2, §3
# SLK = target: T30, SLK (Homo sapiens, UniProt Q9H2G2); conditions: read-out: %Inhibition by 10 μM SPA70
# T30 construct: purchased DiscoverX (Ambit Biosciences) KINOMEscan
# Experimental: as §1, §2, §3
# STK33 = target: T31, STK33 (Homo sapiens, UniProt Q9BYT3); conditions: read-out: %Inhibition by 10 μM SPA70
# T31 construct: purchased DiscoverX (Ambit Biosciences) KINOMEscan
# Experimental: as §1, §2, §3
# SgK110 = target: T32, SgK110 (Homo sapiens, UniProt P0C264); conditions: read-out: %Inhibition by 10 μM SPA70
# T32 construct: purchased DiscoverX (Ambit Biosciences) KINOMEscan
# Experimental: as §1, §2, §3
# TAOK1 = target: T33, TAOK1 (Homo sapiens, UniProt Q7L7X3); conditions: read-out: %Inhibition by 10 μM SPA70
# T33 construct: purchased DiscoverX (Ambit Biosciences) KINOMEscan
# Experimental: as §1, §2, §3
# TAOK3 = target: T34, TAOK3 (Homo sapiens, UniProt Q9H2K8); conditions: read-out: %Inhibition by 10 μM SPA70
# T34 construct: purchased DiscoverX (Ambit Biosciences) KINOMEscan
# Experimental: as §1, §2, §3
# TIE2 = target: T35, TIE2 (Homo sapiens, UniProt Q02763); conditions: read-out: %Inhibition by 10 μM SPA70
# T35 construct: purchased DiscoverX (Ambit Biosciences) KINOMEscan
# Experimental: as §1, §2, §3
# TNIK = target: T36, TNIK (Homo sapiens, UniProt Q9UKE5); conditions: read-out: %Inhibition by 10 μM SPA70
# T36 construct: purchased DiscoverX (Ambit Biosciences) KINOMEscan
# Experimental: as §1, §2, §3
# [3] = target: T37, TYK2(JH1domain-catalytic) (Homo sapiens, UniProt P29597)
# T37 construct: TYK2(JH1domain-catalytic); purchased DiscoverX (Ambit Biosciences) KINOMEscan
# Experimental: as §1, §2, §3
# TYRO3 = target: T38, TYRO3 (Homo sapiens, UniProt Q06418); conditions: read-out: %Inhibition by 10 μM SPA70
# T38 construct: purchased DiscoverX (Ambit Biosciences) KINOMEscan
# Experimental: as §1, §2, §3
# VRK2 = target: T39, VRK2 (Homo sapiens, UniProt Q86Y07); conditions: read-out: %Inhibition by 10 μM SPA70
# T39 construct: purchased DiscoverX (Ambit Biosciences) KINOMEscan
# Experimental: as §1, §2, §3
# WEE2 = target: T40, WEE2 (Homo sapiens, UniProt P0C1S8); conditions: read-out: %Inhibition by 10 μM SPA70
# T40 construct: purchased DiscoverX (Ambit Biosciences) KINOMEscan
# Experimental: as §1, §2, §3
# ZAK = target: T41, ZAK (Homo sapiens, UniProt Q9NYL2); conditions: read-out: %Inhibition by 10 μM SPA70
# T41 construct: purchased DiscoverX (Ambit Biosciences) KINOMEscan
# Experimental: as §1, §2, §3
# T24 sequence (P53350 whole entry): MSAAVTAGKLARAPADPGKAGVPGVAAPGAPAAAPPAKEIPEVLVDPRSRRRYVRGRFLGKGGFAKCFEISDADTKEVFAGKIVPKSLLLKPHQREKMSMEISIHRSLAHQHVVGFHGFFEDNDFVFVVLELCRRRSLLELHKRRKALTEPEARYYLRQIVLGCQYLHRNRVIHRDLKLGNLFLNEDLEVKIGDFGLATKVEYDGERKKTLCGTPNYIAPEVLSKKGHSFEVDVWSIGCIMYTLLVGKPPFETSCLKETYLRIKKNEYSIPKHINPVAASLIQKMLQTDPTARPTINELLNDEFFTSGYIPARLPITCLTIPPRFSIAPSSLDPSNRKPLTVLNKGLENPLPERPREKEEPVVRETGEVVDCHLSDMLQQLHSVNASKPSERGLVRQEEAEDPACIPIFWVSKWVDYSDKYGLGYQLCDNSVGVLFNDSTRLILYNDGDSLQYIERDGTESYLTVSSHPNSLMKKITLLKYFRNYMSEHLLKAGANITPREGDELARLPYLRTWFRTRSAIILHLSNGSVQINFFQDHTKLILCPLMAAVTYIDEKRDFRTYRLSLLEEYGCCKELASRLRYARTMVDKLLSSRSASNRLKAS
# T8 sequence (Q05397 whole entry): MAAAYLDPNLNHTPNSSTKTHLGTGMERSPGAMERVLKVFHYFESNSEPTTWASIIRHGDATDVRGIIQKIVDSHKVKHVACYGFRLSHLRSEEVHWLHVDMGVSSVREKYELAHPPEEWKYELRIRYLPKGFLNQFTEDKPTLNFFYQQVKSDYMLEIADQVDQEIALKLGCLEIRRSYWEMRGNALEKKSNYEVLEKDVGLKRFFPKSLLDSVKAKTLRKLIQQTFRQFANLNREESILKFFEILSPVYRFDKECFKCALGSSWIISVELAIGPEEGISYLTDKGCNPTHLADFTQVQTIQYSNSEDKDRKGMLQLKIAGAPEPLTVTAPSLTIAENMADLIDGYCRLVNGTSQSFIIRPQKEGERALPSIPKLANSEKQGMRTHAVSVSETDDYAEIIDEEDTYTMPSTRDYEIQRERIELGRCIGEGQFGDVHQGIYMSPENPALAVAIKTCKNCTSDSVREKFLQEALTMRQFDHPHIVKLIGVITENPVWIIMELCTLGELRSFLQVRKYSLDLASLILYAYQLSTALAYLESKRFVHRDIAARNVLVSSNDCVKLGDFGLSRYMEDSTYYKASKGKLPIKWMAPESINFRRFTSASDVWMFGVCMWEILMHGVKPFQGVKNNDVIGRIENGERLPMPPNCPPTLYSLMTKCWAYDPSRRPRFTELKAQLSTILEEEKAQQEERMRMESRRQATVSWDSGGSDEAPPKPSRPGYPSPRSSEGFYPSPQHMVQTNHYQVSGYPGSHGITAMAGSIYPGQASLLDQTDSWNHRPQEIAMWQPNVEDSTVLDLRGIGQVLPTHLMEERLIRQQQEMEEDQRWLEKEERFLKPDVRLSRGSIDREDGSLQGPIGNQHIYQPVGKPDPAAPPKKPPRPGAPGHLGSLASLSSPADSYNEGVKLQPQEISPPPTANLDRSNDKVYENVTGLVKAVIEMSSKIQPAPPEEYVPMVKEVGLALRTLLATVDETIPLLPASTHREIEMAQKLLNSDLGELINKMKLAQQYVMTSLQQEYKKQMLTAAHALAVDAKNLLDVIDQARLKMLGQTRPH
# T13 sequence (Q15831 whole entry): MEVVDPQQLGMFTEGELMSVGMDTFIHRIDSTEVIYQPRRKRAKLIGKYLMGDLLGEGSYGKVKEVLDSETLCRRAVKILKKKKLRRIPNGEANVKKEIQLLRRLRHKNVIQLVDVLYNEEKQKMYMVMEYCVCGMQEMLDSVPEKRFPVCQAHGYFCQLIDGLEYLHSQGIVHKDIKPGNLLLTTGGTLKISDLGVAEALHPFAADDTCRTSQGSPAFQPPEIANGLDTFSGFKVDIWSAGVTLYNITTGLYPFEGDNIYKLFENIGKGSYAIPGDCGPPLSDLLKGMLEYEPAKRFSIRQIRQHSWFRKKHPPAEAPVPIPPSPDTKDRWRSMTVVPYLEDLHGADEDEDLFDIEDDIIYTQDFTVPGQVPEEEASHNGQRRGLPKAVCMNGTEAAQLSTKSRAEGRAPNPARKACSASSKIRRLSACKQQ
# T32 sequence (P0C264 whole entry): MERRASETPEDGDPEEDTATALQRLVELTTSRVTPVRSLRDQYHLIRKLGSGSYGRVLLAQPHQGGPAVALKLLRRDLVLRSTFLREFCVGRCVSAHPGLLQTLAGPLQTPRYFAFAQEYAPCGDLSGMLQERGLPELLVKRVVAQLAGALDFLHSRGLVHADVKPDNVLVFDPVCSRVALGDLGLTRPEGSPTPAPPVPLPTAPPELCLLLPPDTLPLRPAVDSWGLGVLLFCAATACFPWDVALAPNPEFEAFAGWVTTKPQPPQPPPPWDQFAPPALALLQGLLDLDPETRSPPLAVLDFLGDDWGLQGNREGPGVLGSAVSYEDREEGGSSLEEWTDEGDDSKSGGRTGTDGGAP
# T27 sequence (P08922 28-2347): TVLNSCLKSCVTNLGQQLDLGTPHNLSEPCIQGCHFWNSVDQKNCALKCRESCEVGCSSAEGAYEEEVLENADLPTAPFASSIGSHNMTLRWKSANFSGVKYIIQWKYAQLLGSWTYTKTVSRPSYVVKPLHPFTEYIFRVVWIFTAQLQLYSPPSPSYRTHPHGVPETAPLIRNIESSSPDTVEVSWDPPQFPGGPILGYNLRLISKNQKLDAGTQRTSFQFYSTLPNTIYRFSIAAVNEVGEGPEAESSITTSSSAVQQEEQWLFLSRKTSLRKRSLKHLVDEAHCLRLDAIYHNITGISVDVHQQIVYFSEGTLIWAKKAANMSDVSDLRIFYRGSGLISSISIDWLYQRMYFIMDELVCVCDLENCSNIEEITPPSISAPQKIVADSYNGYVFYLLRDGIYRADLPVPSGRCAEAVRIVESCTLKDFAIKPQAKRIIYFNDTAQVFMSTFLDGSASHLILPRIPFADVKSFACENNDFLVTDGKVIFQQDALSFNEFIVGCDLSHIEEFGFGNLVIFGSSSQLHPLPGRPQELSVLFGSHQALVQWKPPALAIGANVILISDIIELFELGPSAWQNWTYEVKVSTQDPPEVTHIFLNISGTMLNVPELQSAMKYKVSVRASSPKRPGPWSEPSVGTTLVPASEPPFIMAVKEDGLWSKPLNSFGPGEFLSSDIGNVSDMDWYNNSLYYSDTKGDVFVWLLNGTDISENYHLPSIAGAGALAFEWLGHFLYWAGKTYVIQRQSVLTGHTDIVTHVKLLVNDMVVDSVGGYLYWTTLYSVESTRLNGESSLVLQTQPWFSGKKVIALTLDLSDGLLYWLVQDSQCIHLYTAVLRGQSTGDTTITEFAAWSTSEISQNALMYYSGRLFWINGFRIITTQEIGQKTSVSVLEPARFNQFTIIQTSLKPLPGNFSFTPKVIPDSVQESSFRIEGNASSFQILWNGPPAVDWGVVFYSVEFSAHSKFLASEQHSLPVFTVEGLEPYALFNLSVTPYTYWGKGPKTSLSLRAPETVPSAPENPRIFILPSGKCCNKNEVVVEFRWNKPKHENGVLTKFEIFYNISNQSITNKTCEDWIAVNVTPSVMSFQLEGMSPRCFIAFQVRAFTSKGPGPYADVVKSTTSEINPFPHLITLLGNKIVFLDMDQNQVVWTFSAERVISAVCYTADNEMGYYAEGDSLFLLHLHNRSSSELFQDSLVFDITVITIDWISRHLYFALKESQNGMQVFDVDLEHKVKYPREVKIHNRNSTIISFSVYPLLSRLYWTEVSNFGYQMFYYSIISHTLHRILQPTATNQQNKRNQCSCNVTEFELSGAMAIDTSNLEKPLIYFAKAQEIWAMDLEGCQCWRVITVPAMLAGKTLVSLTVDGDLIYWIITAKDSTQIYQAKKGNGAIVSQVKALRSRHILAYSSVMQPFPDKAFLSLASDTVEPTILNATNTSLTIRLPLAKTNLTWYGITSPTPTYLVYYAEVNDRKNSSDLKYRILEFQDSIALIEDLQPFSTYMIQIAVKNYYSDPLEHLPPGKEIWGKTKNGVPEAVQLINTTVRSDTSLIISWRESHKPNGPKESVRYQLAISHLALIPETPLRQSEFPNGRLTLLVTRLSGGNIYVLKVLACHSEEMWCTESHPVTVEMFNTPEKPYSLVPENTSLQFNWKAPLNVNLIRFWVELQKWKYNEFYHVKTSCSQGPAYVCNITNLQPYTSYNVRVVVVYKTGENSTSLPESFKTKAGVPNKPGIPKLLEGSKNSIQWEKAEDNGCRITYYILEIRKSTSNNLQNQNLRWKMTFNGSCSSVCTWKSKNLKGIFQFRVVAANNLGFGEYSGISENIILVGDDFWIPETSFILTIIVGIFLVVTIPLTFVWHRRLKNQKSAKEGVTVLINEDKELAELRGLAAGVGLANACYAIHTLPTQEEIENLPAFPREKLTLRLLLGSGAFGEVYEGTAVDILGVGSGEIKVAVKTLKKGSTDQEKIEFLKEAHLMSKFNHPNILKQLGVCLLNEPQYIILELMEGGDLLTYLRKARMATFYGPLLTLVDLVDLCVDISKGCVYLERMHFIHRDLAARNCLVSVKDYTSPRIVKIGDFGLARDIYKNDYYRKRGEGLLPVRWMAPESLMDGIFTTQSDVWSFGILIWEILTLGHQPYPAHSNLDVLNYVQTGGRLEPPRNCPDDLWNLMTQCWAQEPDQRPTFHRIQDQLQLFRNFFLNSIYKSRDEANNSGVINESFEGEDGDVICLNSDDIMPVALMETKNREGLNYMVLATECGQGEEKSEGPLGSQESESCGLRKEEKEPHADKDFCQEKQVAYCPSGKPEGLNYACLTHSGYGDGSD
# T37 sequence (P29597 871-1187 limits assumed): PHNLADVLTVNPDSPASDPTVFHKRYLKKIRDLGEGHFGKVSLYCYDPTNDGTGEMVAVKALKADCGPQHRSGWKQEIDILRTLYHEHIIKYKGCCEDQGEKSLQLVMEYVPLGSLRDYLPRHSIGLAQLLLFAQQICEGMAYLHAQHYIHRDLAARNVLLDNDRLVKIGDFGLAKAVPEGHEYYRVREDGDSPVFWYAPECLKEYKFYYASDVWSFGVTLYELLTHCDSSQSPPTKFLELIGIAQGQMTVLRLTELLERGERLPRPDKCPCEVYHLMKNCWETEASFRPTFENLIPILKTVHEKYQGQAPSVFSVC
smiles,measurement,setting,value
COc1ccc(OC)c(-n2nnc(S(=O)(=O)c3ccc(C(C)(C)C)cc3)c2C)c1 [SPA70],inhibition at 10 µM,ACVR1B,0%
same,inhibition at 10 µM,ACVR2A,0%
same,inhibition at 10 µM,AURKC,2%
same,inhibition at 10 µM,CDC2L1,0%
same,inhibition at 10 µM,CLK1,0%
same,%Inhibition by 10 μM SPA70,EPHA5,0%
same,inhibition at 10 µM,EPHB3,0%
same,inhibition at 10 µM,FAK,6%
same,inhibition at 10 µM,IKK-beta,26%
same,inhibition at 10 µM,IKK-epsilon,0%
same,inhibition at 10 µM,INSRR,0%
same,%Inhibition by 10 μM SPA70,ITK,0%
same,inhibition at 10 µM,LKB1,0%
same,inhibition at 10 µM,MEK3,0%
same,inhibition at 10 µM,MEK6,0%
same,inhibition at 10 µM,MERTK,0%
same,inhibition at 10 µM,MUSK,0%
same,inhibition at 10 µM,NEK4,21%
same,inhibition at 10 µM,NIM1,4%
same,inhibition at 10 µM,OSR1,14%
same,inhibition at 10 µM,PCTK2,0%
same,inhibition at 10 µM,PHKG2,0%
same,inhibition at 10 µM,PKN1,0%
same,inhibition at 10 µM,PLK1,0%
same,inhibition at 10 µM,PRKD2,9%
same,inhibition at 10 µM,PRP4,0%
same,inhibition at 10 µM,ROS1,5%
same,inhibition at 10 µM,[1],37%
same,inhibition at 10 µM,[2],12%
same,inhibition at 10 µM,SLK,9%
same,inhibition at 10 µM,STK33,0%
same,inhibition at 10 µM,SgK110,0%
same,inhibition at 10 µM,TAOK1,15%
same,inhibition at 10 µM,TAOK3,2%
same,inhibition at 10 µM,TIE2,0%
same,inhibition at 10 µM,TNIK,10%
same,%Inhibition by 10 μM SPA70,[3],0%
same,inhibition at 10 µM,TYRO3,0%
same,inhibition at 10 µM,VRK2,0%
same,inhibition at 10 µM,WEE2,1%
same,inhibition at 10 µM,ZAK,0%
